Test results reported in ChEMBL document CHEMBL1135361, “Potent in vitro methicillin-resistant Staphylococcus aureus activity of 2-(1H-indol-3-yl)tetrahydroquinoline derivatives” (2002).
In brackets after ≈: the same amount, converted by molar mass.

Columns and labels:
Staphylococcus aureus = assay: Minimum inhibitory concentration against methicillin-resistant Staphylococcus aureus; type: functional
Enterococcus faecium = assay: Minimum inhibitory concentration against vancomycin-resistant Enterococcus faecium (VRE); type: functional
[1] = Staphylococcus aureus, read-out: MIC

SMILES | MIC (Staphylococcus aureus; [1]) [µg/mL] | MIC (Staphylococcus aureus) [µg/mL] | MIC (Enterococcus faecium) [µg/mL]
Brc1ccc2[nH]cc([C@H]3Nc4ccc(C#CCN5CCCCC5)cc4[C@H]4OCC[C@@H]34)c2c1 | 1.56 (≈ 3.18 µM) | – | –
Clc1cc(Cl)c2c(c1)[C@H]1OCC[C@H]1[C@@H](c1c[nH]c3ccc(Br)cc13)N2 | 1.56 (≈ 3.56 µM) | – | –
Clc1ccc2c(c1)[C@H]1OCC[C@H]1[C@@H](c1c[nH]c3ccc(Cl)cc13)N2 | 0.78 (≈ 2.17 µM) | – | –
Clc1ccc2c(c1)[C@H]1OCC[C@H]1[C@@H](c1c[nH]c3ccc(Br)cc13)N2 (stereo in doubt) | – | 0.31 (≈ 0.768 µM) | –
NCc1cc(-c2c[nH]c3ccc(Br)cc23)nc2cc(Cl)ccc12 | 0.78 (≈ 2.02 µM) | – | 1.56 (≈ 4.03 µM)
Clc1ccc2c(c1)N(Cl)[C@H](c1c[nH]c3ccc(Br)cc13)[C@@H]1CCO[C@H]21 | 1.56 (≈ 3.56 µM) | – | –
OCC#Cc1ccc2c(c1)[C@H]1OCC[C@H]1[C@@H](c1c[nH]c3ccc(Br)cc13)N2 | 3.13 (≈ 7.39 µM) | – | –
CN1c2ccc(Cl)cc2[C@H]2OCC[C@H]2[C@H]1c1c[nH]c2ccc(Br)cc12 | > 25 | – | –
Brc1ccc2[nH]cc([C@H]3Nc4ccc(CCCN5CCCCC5)cc4[C@H]4OCC[C@@H]34)c2c1 | 12.5 (≈ 25.3 µM) | – | –
Clc1ccc2c(c1)[C@H]1NCC[C@H]1[C@@H](c1c[nH]c3ccc(Cl)cc13)N2 | 3.13 (≈ 8.74 µM) | – | > 25
Clc1ccc2c(c1)[C@H]1OCC[C@H]1[C@@H](c1c[nH]c3ccccc13)N2 | > 25 | – | –
Fc1ccc2c(c1)[C@H]1OCC[C@H]1[C@@H](c1c[nH]c3ccc(Br)cc13)N2 | 6.25 (≈ 16.1 µM) | – | –
Fc1cccc2c1N[C@H](c1c[nH]c3ccc(Br)cc13)[C@@H]1CCO[C@H]21 | 0.78 (≈ 2.01 µM) | – | –
Brc1ccc2[nH]cc([C@H]3Nc4c(I)cccc4[C@H]4OCC[C@@H]34)c2c1 | < 0.39 | – | –
CC(C)(C)OC(=O)N1CC[C@@H]2[C@H]1c1cc(Cl)ccc1N[C@H]2c1c[nH]c2ccc(Br)cc12 | 1.56 (≈ 3.1 µM) | – | –
Cc1[nH]c2ccccc2c1[C@H]1Nc2ccc(Cl)cc2[C@H]2OCC[C@@H]12 | > 25 | – | –
Fc1ccc2c([C@H]3Nc4ccc(Cl)cc4[C@H]4OCC[C@@H]34)c[nH]c2c1 | 6.25 (≈ 18.2 µM) | – | –
Clc1ccc2c(c1)[C@H]1OCC[C@H]1[C@H](c1c[nH]c3ccc(Cl)cc13)N2 | 3.13 (≈ 8.71 µM) | – | –
Fc1ccc2c([C@@H]3Nc4ccc(Cl)cc4[C@H]4OCC[C@H]43)c[nH]c2c1 | 12.5 (≈ 36.5 µM) | – | –
Clc1ccc2c(c1)[C@H]1NCC[C@H]1[C@H](c1c[nH]c3ccc(Cl)cc13)N2 | 6.25 (≈ 17.4 µM) | – | > 25
Clc1ccc2c(c1)[C@H]1OCC[C@H]1[C@H](c1c[nH]c3ccccc13)N2 | 6.25 (≈ 19.2 µM) | – | –
FC(F)(F)c1cccc2c1N[C@H](c1c[nH]c3ccc(Br)cc13)[C@@H]1CCO[C@H]21 | 0.78 (≈ 1.78 µM) | – | –
Clc1ccc2c(c1)[C@H]1OCC[C@H]1[C@H](c1c[nH]c3ccc(Br)cc13)N2 | 3.13 (≈ 7.76 µM) | – | –
CC(C)(C)OC(=O)N1CC[C@H]2[C@@H](c3c[nH]c4ccc(Br)cc34)Nc3ccc(Cl)cc3[C@H]21 | 0.78 (≈ 1.55 µM) | – | –
Clc1ccc2ccc(-c3c[nH]c4ccc(Br)cc34)nc2c1 | 0.6 (≈ 1.68 µM) | – | > 25
COc1cccc2c1N[C@H](c1c[nH]c3ccc(Br)cc13)[C@@H]1CCO[C@H]21 | 1.56 (≈ 3.91 µM) | – | –
Clc1ccc2c(c1)[C@H]1OCC[C@H]1[C@@H](c1c[nH]c3ccc(Br)cc13)N2 (stereo in doubt; 9) | – | 3.13 (≈ 7.75 µM) | –
